Values quoted from earlier work, collected in paper PMC11215356 (Haematologica, 2024).

How the values were obtained:
CLL/SLL = CLL/SLL patients, range over previous Syk inhibitor studies
FL = FL patients
[1] = tested on: patients treated with fostamatinib

SMILES | ORR (CLL/SLL) | mPFS (CLL/SLL) | mPFS (FL) [months] | diarrhea as a DLT event [1] [%] | diarrhea as one of the most common TRAE [1] [%]
CCS(=O)(=O)N1CCN(c2ccc(Nc3ncc(C(N)=O)c(NC4CC4)n3)cc2)CC1 [cerdulatinib] | 33-61% | 5.6-13.8 months | – | – | –
c1cn2cc(-c3ccc4cn[nH]c4c3)nc(Nc3ccc(N4CCOCC4)cc3)c2n1 [entospletinib] | 33-61% | 5.6-13.8 months | 4.6 | – | –
COc1cc(Nc2ncc(F)c(Nc3ccc4c(n3)N(COP(=O)(O)O)C(=O)C(C)(C)O4)n2)cc(OC)c1OC [fostamatinib] | 33-61% | 5.6-13.8 months | 5.7 | 21 | 41
